# Test results from ChEMBL document CHEMBL1201862, “PubChem BioAssay data set” (2004).
# Activity calls are given as the source filed them.
# Key:
# cells [1] = assay type: functional, cell-based
# cells [2] = assay type: functional, cell-based; remark: listed apart in the source
# [3] = biological target: T1, Short transient receptor potential channel 4 (Mus musculus, UniProt Q9QUQ5); experiment: calcium entry via TRPC4 opening agents – cell-based, HEK293 TRPC4/mu-opioid, Fluo-4 calcium, dose response (AID 434937); assay type: functional
# T1 sequence (Q9QUQ5 whole entry): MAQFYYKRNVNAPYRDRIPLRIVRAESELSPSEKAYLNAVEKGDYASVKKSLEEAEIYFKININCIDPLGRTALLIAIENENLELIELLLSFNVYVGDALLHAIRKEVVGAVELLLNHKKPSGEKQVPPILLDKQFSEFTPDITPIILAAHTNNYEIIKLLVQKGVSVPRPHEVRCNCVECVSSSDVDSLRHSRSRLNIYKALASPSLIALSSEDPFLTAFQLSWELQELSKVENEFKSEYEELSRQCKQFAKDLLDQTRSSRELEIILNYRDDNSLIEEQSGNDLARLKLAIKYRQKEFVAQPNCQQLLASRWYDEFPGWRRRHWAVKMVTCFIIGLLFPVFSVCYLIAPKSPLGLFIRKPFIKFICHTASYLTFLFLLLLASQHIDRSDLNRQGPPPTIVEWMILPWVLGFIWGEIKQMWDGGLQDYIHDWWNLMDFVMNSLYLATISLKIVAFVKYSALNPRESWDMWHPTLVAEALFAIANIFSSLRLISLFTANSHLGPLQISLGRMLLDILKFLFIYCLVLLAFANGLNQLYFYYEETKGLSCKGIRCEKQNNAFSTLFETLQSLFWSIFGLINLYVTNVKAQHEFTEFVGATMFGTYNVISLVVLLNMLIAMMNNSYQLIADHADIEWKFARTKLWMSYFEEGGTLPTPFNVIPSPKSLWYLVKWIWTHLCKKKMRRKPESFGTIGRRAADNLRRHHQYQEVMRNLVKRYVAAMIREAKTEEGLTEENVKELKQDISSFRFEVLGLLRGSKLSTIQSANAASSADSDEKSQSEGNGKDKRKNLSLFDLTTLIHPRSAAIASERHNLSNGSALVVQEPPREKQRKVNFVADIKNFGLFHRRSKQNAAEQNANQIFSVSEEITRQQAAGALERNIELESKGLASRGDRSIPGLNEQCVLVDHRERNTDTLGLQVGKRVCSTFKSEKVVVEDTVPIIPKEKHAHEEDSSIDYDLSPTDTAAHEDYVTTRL
# [4] = viability of PTEN-deleted HCT116 cells – cell-based, HCT116 PTEN knockout, dose response (AID 1047); assay type: functional;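 note: HCT116 colon tumor cells with PTEN knocked out; cells exposed to compound for 60 hours before readout; potency for loss of cell viability measured by luminescence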
# [5] = viability of HCT116 lacking mutant beta-catenin – cell-based, human colon tumor, dose response (AID 1045); assay type: functional;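 note: HCT116 colon tumor cells with beta catenin knocked out; cells exposed to compound for 60 hours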
# [6] = Luminescence Cell-Based Dose Retest to Confirm Inhibitors of Cancer Stem Cells. [Related pubchem assays (depositor defined):AID2717, AID2721]; assay type: functional; details: Homo sapiens
# [7] = viability of uninfected HEp-2 cells – cell-based, HTS, cytotoxicity control for RSV inhibitor project, dose response (AID 2410); assay type: functional; details: human respiratory syncytial virus
# [8] = biological target: T2, Heat shock factor protein 1 (Mus musculus, UniProt P38532); experiment: decrease of HSF1-responsive luciferase luminescence – cell-based, NIH3T3, dose retest, confirmation (AID 2382); assay type: functional;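 note: NIH3T3 fibroblasts with HSF1-driven luciferase reporter stressed by proteasome inhibitor MG132; luminescence from HSF1-driven luciferase expression after 8 hours of MG132 stress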
# T2 sequence (P38532 whole entry): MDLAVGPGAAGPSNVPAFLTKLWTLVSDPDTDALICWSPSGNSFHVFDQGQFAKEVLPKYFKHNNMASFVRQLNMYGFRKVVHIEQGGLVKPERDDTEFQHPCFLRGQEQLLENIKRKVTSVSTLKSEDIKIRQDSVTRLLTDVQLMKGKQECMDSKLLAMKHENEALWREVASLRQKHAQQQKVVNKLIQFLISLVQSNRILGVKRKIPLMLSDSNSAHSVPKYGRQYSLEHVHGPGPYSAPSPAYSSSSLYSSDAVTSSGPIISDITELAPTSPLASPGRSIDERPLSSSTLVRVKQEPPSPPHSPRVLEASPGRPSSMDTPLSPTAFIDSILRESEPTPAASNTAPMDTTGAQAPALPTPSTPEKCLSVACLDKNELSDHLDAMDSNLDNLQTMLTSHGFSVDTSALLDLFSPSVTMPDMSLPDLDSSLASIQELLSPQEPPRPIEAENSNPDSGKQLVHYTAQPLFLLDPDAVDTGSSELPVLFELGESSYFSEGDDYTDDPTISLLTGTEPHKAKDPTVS
# H9c2 = experiment: cells; assay type: functional, cell-based; details: Rattus norvegicus, H9c2, Myocardium;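 note: confirmatory concentration-response retest of ultra-high-throughput screening hits for modulation of myocardial damage; cell death induced by hydrogen peroxide oxidative stress; compound pretreatment for 60 min then peroxide exposure for 2 h; potency is for protecting the cells against peroxide damage rather than for killing them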
# [9] = loss of viability in HepG2 cells – cell-based, CellTiter-Glo, cherry-picked, cytotoxicity control for Shn3 inhibitor project, dose response (AID 624134); assay type: functional
# [10] = reduction of Shn3 3'UTR-driven luciferase in osteoblasts – cell-based, Clone20 osteoblasts, firefly luciferase, cherry-picked, dose response (AID 624132); assay type: functional;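 note: firefly luciferase luminescence from reporter carrying the Shn3 3'UTR in osteoblasts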
# [11] = non-specific 3'UTR reporter inhibition in Clone20-Shn3RL – cell-based, Renilla luciferase, cherry-picked, counter-screen for Shn3 inhibitor project, dose response (AID 624133); assay type: functional
# [12] = NIH3T3 cell viability loss – ATP luminescence, mouse fibroblasts, counter-screen, dose response (AID 2010); assay type: functional, cell-based;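 note: cells exposed to compound for about 90 hours before reading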
# [13] = Trypanosoma cruzi growth suppression in host cells – NIH3T3 host cells, beta-gal luminescence, confirmation (AID 2044); assay type: functional, cell-based;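 note: intracellular parasites grown in NIH/3T3 mouse fibroblasts as host cells; luminescent beta-galactosidase reporter signal from transgenic T. cruzi replicating inside host cells; inhibitors lower the luminescence signal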
# Cytochrome P450 2D6 = Cytochrome P450 2D6 (Homo sapiens, UniProt P10635);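 note: CYP2D6 member of a cytochrome P450 panel assay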
# Cytochrome P450 2D6, sequence (P10635 whole entry): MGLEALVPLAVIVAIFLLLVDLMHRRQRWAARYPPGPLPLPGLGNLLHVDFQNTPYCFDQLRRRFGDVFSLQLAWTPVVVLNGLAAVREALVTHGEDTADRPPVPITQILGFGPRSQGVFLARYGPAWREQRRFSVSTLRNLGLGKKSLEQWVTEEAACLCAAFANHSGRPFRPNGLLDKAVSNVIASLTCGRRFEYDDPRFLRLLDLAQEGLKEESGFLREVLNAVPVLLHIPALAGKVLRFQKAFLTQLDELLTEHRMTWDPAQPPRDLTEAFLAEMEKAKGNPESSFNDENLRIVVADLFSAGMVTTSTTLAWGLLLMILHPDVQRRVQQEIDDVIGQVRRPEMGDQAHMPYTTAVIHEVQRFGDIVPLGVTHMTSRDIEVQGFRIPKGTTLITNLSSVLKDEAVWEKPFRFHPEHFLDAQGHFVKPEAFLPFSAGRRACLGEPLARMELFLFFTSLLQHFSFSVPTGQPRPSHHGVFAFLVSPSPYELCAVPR
# Cytochrome P450 2C9 = Cytochrome P450 2C9 (Homo sapiens, UniProt P11712)
# Cytochrome P450 2C9, sequence (P11712 whole entry): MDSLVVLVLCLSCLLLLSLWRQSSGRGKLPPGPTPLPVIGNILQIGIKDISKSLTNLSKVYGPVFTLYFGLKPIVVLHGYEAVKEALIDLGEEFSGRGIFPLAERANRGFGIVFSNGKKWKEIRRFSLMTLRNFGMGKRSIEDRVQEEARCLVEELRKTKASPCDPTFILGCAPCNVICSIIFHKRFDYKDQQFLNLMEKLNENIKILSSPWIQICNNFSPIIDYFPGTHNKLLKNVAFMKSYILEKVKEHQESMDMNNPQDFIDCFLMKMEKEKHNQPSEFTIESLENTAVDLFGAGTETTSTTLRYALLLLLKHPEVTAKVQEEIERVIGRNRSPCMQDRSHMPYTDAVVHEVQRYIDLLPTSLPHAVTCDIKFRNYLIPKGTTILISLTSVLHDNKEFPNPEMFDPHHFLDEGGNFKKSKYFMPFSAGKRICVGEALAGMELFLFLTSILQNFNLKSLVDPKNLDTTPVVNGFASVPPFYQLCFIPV
# Streptokinase A = biological target: T3, Streptokinase A (Streptococcus pyogenes serotype M1, UniProt P10520); experiment: viability-normalized secreted streptokinase activity reduction – plasminogen activation absorbance, OD405, dose response (AID 1914); assay type: functional, Streptococcus pyogenes M1 GAS;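 note: secreted streptokinase activity via plasminogen activation per viability signal from cell pellet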
# T3 sequence (P10520 whole entry): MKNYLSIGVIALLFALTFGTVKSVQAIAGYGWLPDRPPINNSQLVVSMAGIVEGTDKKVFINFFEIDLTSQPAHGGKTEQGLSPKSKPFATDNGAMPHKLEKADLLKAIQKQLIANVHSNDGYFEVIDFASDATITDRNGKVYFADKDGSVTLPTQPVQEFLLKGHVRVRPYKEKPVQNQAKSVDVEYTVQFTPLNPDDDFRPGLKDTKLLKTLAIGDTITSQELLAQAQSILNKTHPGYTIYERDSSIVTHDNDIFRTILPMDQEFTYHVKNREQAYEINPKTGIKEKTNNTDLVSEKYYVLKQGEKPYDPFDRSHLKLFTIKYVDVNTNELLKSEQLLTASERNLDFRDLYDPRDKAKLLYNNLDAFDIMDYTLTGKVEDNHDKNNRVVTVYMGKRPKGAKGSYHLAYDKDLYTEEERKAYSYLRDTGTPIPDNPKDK
# Streptococcus = experiment: GAS UMAA2166 growth inhibition – luminescence, BacTiterGlo, counter-screen for streptokinase expression inhibitor project, dose response (AID 1915); assay type: functional, organism-based;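 note: potency for reduction of bacterial viability or growth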
# [14] = test system: Streptococcus sp. 'group A'; experiment: Streptococcus pyogenes SK(-)GAS viability under kanamycin – luminescence, BacTiterGlo, confirmation, counter-screen for streptokinase expression inhibitor project, dose response (AID 1900); assay type: functional, organism-based
# [15] = biological target: T2, Heat shock factor protein 1; experiment: enhancement of HSF1-driven luciferase signal – cell-based, NIH3T3, luminescence, dose retest, confirmation (AID 435004); assay type: functional;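 note: stress induced by proteasome inhibitor MG132 added 30 min after compound; luciferase reporter driven by HSF1 response element in NIH3T3 cells; actives raise luminescence as potentiators of the MG132 stress response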
# Paired box protein Pax-8 = Paired box protein Pax-8 (Homo sapiens, UniProt Q06710); experiment: PAX8 transcriptional activity inhibition in RMG-I – RMG-I cells, luciferase, cherry-pick, dose response (AID 687027); assay type: functional, cell-based;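 note: luciferase reporter driven by Pax8 target thyroperoxidase promoter measured by SteadyGlo luminescence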
# Paired box protein Pax-8, sequence (Q06710 whole entry, the tested form may be a part): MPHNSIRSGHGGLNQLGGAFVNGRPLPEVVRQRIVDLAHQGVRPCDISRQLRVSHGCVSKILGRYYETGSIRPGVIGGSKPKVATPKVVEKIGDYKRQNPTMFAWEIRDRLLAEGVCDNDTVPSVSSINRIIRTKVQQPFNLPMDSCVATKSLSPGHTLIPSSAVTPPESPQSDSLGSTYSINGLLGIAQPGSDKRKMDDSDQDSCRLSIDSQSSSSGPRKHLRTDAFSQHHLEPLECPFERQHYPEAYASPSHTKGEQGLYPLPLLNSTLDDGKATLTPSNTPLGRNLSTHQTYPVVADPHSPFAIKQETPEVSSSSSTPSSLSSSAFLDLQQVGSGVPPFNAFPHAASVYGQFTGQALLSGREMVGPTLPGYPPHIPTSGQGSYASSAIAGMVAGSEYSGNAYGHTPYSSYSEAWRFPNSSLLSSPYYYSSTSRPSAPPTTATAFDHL
# [16] = HIV-1 AD8 envelope cell-cell fusion blockers – cherry-pick, dose response (AID 652062); assay type: functional, cell-based;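 note: luciferase signal from cell-cell fusion driven by HIV-1 clade B AD8 Env; potency is for inhibitors of fusion seen as a drop in luminescence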
# [17] = blockers of HIV-1 envelope-mediated cell-cell fusion – cherry-pick, dose response (AID 652057); assay type: functional, cell-based
# [18] = blockers of HIV-1 ZM109 envelope-driven cell-cell fusion – HeLa effector, CEM target cells, luciferase, cherry-pick, dose response (AID 652058); assay type: functional, cell-based;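 note: luciferase signal from HIV-1 Env mediated cell-cell fusion of effector and target cells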
compound,measurement,setting,value
COc1ccc(NC(=O)CCC(=O)N(Cc2ccc(OC)c(OC)c2)c2nccs2)cc1,EC50,cells [1],> 350 µM (not active)
same,EC50,cells [2],> 350 µM (not active)
O=C(CCCCn1c(=O)[nH]c2ccccc2c1=O)NC1CCN(Cc2ccccc2)CC1,EC50,[3],0.376 µM (active)
COc1c2c(cc3c1C(CC(O)Cc1ccccc1)N(C)CC3)OCO2 (stereo not given),EC50,[3],2.99 µM (active)
Cc1ccc(S(=O)(=O)c2nc(-c3ccccc3Cl)oc2N(C)C)cc1,EC50,cells [1],> 350 µM (not active)
same,EC50,cells [2],> 350 µM (not active)
CC(C)OCCCNC(=O)c1c(N)n(Cc2cccs2)c2nc3ccccc3nc12,EC50,[4],84.7 µM (active)
same,EC50,[5],216 µM (active)
same,AC50,[6],3.51 µM (active)
COC(=O)c1ccccc1N=Nc1c(O)n[nH]c1N,EC50,[3],2.99 µM (active)
same,CC50,[7],> 50 µM (active)
CN1CCN(c2ccc([N+](=O)[O-])c3cccnc23)CC1,EC50,[3],0.004 µM (active)
same,EC50,[8],> 195 µM (not active)
CCOC(=O)C1CCCN(C(=O)c2ccc3nc(-c4ccccc4)c(-c4ccccc4)nc3c2)C1 (stereo not given),EC50,cells [1],> 350 µM (not active)
same,EC50,cells [2],> 350 µM (not active)
O=c1cc(-c2ccncc2)oc2ccccc12,IC50,H9c2,> 79 µM (inactive)
same,CC50,[7],36.7 µM (active)
CCNC(=O)COc1cccc(C(=O)NCc2ccccc2)c1,EC50,cells [1],> 350 µM (not active)
same,EC50,cells [2],> 350 µM (not active)
CC(OC(=O)Cc1nnc(O)c2ccccc12)C(=O)Nc1ccccc1[N+](=O)[O-] (stereo not given),IC50,H9c2,> 79 µM (inactive)
CC1(C)CC2CC(C)(CN2c2ncnc3ccc(Br)cc23)C1 (stereo not given),AC50,[9],37.2 µM (active)
same,AC50,[10],2.11 µM (active)
same,AC50,[11],0.972 µM (active)
Cn1c(N2CCN(C(=O)Nc3ccc(C(F)(F)F)cc3)CC2)nc2ccccc21,EC50,[3],3.35 µM (active)
Cc1c(NC(=O)CSc2cccc3cccnc23)c(=O)n(-c2ccccc2)n1C,EC50,[4],17.4 µM (active)
same,EC50,[5],17 µM (active)
same,EC50,[12],> 30 µM (not active)
same,EC50,[13],1.31 µM (active)
FC(F)(F)c1cnc(N2CCN(C(S)=NCc3ccccc3)CC2)c(Cl)c1,EC50,cells [1],> 350 µM (not active)
same,EC50,cells [2],> 350 µM (not active)
COCCCn1c(C)nc2c(c1=O)c1nc3ccccc3nc1n2CCc1ccccc1,IC50,H9c2,11.7 µM (active)
CCOC(=O)c1cn(CC(=O)Nc2cccc(Cl)c2C)nn1,AC50,[9],> 70 µM (inactive)
same,AC50,[10],4.65 µM (active)
CC1CC/C(=C\c2ccc3c(c2)OCO3)C(=O)/C1=C/c1ccc2c(c1)OCO2 (stereo not given),EC50,[4],13.8 µM (active)
same,EC50,[5],14.3 µM (active)
same,AC50,Cytochrome P450 2D6,2.51 µM (inconclusive)
same,AC50,[6],2.92 µM (active)
same,AC50,Cytochrome P450 2C9,6.31 µM (inconclusive)
O=C(Nc1nnc(-c2ccco2)o1)c1ccc2ccccc2c1,EC50,Streptokinase A,> 150 µM (not active)
same,EC50,Streptococcus,> 150 µM (not active)
same,EC50,[14],12.8 µM (active)
same,IC50,H9c2,> 79 µM (inactive)
Cc1cc(C)cc(-n2c(N)c(C(=O)Nc3c(C)n(C)n(-c4ccccc4)c3=O)c3nc4ccccc4nc32)c1,EC50,[4],11.8 µM (active)
same,EC50,[5],13 µM (active)
same,EC50,[12],> 60 µM (not active)
same,EC50,[13],1.21 µM (active)
O=C(NCCCN1CCOCC1)c1cc(-c2ccccc2)on1,EC50,cells [1],11.5 µM (active)
same,EC50,cells [2],> 350 µM (not active)
CN(C)CCNC(=O)/C(=C/c1ccc(-c2cccc(Cl)c2)o1)NC(=O)c1ccccc1,EC50,[4],10.3 µM (active)
same,EC50,[15],> 260 µM (inactive)
same,EC50,[5],10.3 µM (active)
O=C(CNC(=O)c1nc[nH]c1C(=O)NCC(=O)OCc1ccccc1)OCc1ccccc1,IC50,H9c2,41 µM (inactive)
Cc1cccc(NC(S)=NCC(c2ccccc2)N(C)C)c1 (stereo not given),EC50,[3],0.119 µM (active)
COc1ccc2nc(O)c(CN(Cc3cccnc3)S(=O)(=O)c3ccccc3F)cc2c1,EC50,[8],6.06 µM (active)
same,IC50,H9c2,> 79 µM (inactive)
COc1ccc(/C=C2\SC(=O)N(CCC(=O)N(C)C3CCS(=O)(=O)C3)C2=O)cc1 (stereo not given),EC50,cells [1],> 350 µM (not active)
same,EC50,cells [2],> 350 µM (not active)
O=C(c1c(F)cccc1F)N1CCN(c2ncc(Br)cn2)CC1,EC50,[3],0.596 µM (active)
CN(Cc1ccc(OC(F)F)cc1)C(=O)c1cccc(S(=O)(=O)N2CCN(c3ccccc3)CC2)c1,AC50,[9],62.1 µM (active)
same,AC50,[10],2.59 µM (active)
same,AC50,[11],1.65 µM (active)
O=c1cc(CN2CCN(S(=O)(=O)c3cccc(Cl)c3)CC2)c2ccc(O)cc2o1,IC50,H9c2,> 79 µM (inactive)
Cc1csc(SCc2nc(O)c3c4c(sc3n2)CCC4)n1,IC50,H9c2,17.1 µM (active)
O=[N+]([O-])c1cc2c(ccc3occc32)o1,AC50,Paired box protein Pax-8,2.49 µM (active)
CN(Cc1ccccc1)N=Nc1[nH]cnc1C(N)=O,AC50,Paired box protein Pax-8,21.2 µM (active)
CS(=O)(=O)Nc1ccc2c(c1)[C@H]1C[C@H](CC(=O)NCc3ccc(-c4ccccc4)cc3)O[C@H](CO)[C@H]1O2,AC50,[16],39 µM (active)
C[C@H](CO)N1C[C@H](C)[C@H](CN(C)S(=O)(=O)c2ccccc2)Oc2ccc(NS(=O)(=O)c3ccc(F)cc3)cc2CC1=O,AC50,[17],15.1 µM (active)
same,AC50,[18],28.8 µM (active)
Cc1ccc(S(=O)(=O)N2CCN(CC(=O)N/N=C\C(Cl)=C\c3ccccc3)CC2)cc1,EC50,[4],44.2 µM (active)
same,EC50,[5],39.3 µM (active)
